Experimental findings from PubChem BioAssay (NCI) are described below.

Experiment in all cases: NCI tumour cell line growth inhibition, 48 h
Test [1] concerns M14 melanoma.
Test [2] concerns HCT-116 colon.
The test system of test [3] is A498 renal.
Test [4] has as its system ACHN renal.
The subject of test [5] is HL-60(TB) leukemia.
Test [6] concerns MDA-MB-435.
Test [7] concerns MALME-3M melanoma.
The subject of test [8] is SF-539 CNS.
The test system of test [9] is HCT-15 colon.
Test [10] has as its system T-47D breast.

SMILES strings stand for the structures. Several values for one entry are separate records, joined by “and”; a condition that tells them apart may be missing. Equal entries are not always repeated.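 Method: 48-hour compound exposure of cells in 96-well plates, five concentrations, linear interpolation of endpoints. At the GI50, growth is halved. TGI marks complete inhibition of growth.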

For `c1csc(-c2ccc(-c3cccs3)c3nsnc23)c1`, the TGI is more than 100 µM in test [1]; more than 100 µM in test [2]; more than 100 µM in test [3]; more than 100 µM in [4]; 27.1 µM in [5]; more than 100 µM in [6]. Further, the TGI in [7] was more than 55.8 µM; in test [8] it was more than 51 µM; in [9], more than 41.4 µM; in test [10], 1.8 µM.
Take `COC(=O)CN1c2nc(C#N)c(C#N)nc2N(CC(=O)OC)c2nc(C#N)c(C#N)nc21`: the TGI in [1] is 5.31 µM; in [2], 3.77 µM; in test [3] it was more than 52 µM; in test [4] it was 5.72 µM; in test [5] it was 5.61 µM; in test [6] it was more than 100 µM. Moreover, the TGI in test [7] was 3.01 µM; in test [8], 24.2 µM; in [9], more than 36 µM; in test [10] it was 8.6 µM.
On to `O=C(O)c1cc(-c2ccc3c(O)c(O)ccc3c2)ccc1O`, for which the TGI in test [1] was 70.6 µM; in [2], 30.3 µM; in [3], more than 75 µM; in test [4], more than 75 µM; in test [5], 53.5 µM; in test [6], more than 75 µM. The TGI in test [7], in test [8], in test [9] and in [10] was more than 75 µM each time.
In the case of `Cc1cn(-c2cc(C(=O)Nc3cccc(-n4ccc5c(NC(=O)c6ccccc6)nccc54)c3)cc(C(F)(F)F)c2)cn1`, the GI50 is 0.452 µM in test [1]; 0.291 µM in test [2]; 0.223 µM in test [3]; 0.549 µM in [4]; 0.451 µM in test [5]; 0.217 µM in test [6]. Further, the GI50 in test [7] is 0.502 µM; in test [8], 0.332 µM; in [9] it was 0.29 µM; in [10] it was 1.9 µM. For the same compound, the TGI in test [1] was 3.29 µM; in [2] it was 1.35 µM; in test [3] it was 1.71 µM; in test [4], 8.7 µM; in test [5], 2.5 µM; in test [6] it was 0.635 µM. Besides, the TGI amounted to 9.66 µM in test [7], 1.51 µM in [8], 4.71 µM in test [9] and 24.2 µM in test [10].
Turning to `ClC(Cl)=C1C(=C(Cl)Cl)C(Cl)(Cl)C1(Cl)Cl`, the TGI in [1] was 4.17 µM; in test [2], 3.73 µM; in test [3], 26 µM; in test [4], 8.81 µM; in [5], 0.66 µM and 2.11 µM; in test [6], 14 µM. Further, the TGI in [7] was determined as 5.9 µM; in test [8], 6.08 µM; in test [9], 3.56 µM; in test [10] it was 23.6 µM. Besides, in test [5], the GI50 was 0.259 µM.
As to `O=C(O)C(SC1=NNC2(C(=O)N1)c1ccccc1-c1ccccc12)SC1=NNC2(C(=O)N1)c1ccccc1-c1ccccc12`, the TGI in test [1], in test [2], in test [3], in test [4], in test [5] and in [6] was more than 10 µM throughout. For the same compound, the TGI in [7], in test [8], in test [9] and in [10] was more than 10 µM each time.
As for `COC(=O)c1c2c(cc3c1CCC3)CCC2`, the TGI was more than 100 µM in test [1]; more than 100 µM in test [2]; 90.3 µM in test [3]; more than 100 µM in [4]; 38.4 µM in test [5]; more than 100 µM in test [6]. The TGI in [7] is more than 100 µM; in test [8], more than 100 µM; in [9] it was more than 100 µM; in test [10], 43.9 µM.
With `CCOC(CNCCC(=O)OC)OCC`, the TGI in test [1], in [2], in test [3], in [4], in [5] and in [6] was more than 10 µM in each case. Also, the TGI in test [7], in [8], in test [9] and in test [10] was more than 10 µM each time.
`NNC1=N/C(=C\c2ccco2)C(Cl)=N1`: the TGI in test [1] was more than 100 µM; in [2] it was more than 100 µM; in test [3], more than 100 µM; in [4] it was more than 100 µM; in test [5] it was 51.4 µM; in test [6], more than 100 µM. The TGI is more than 100 µM in [7], 57.4 µM in [8], more than 100 µM in [9] and more than 100 µM in test [10].
In the case of `COc1cc(-c2cc(=O)c3cc4c(=O)cc(-c5cc(OC)c(OC)c(OC)c5)oc4cc3o2)cc(OC)c1OC`, the TGI in test [1] is more than 100 µM; in test [2], more than 100 µM; in test [3] it was 65.6 µM; in test [4] it was more than 85.1 µM; in [5] it was more than 100 µM; in test [6], more than 100 µM. Further, the TGI in test [7], in test [8], in [9] and in test [10] was more than 100 µM throughout.
In the case of `CCOC(=O)C(Cl)(Cl)/S(=N\S(=O)(=O)c1ccccc1)NC(=O)c1ccccc1` (stereo unspecified), the TGI in test [1], in test [2], in test [3], in test [4], in test [5] and in test [6] was more than 100 µM each time. In addition, the TGI in [7], in test [8], in test [9] and in test [10] was more than 100 µM in each case.
